This note sets out measurements from PubChem BioAssay (NCI).

Structures are written as SMILES.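 Cells were grown in 96-well plates and exposed to each compound for 48 hours at five concentrations; endpoints were interpolated linearly between bracketing concentrations, or set to the highest concentration if not reached. Abbreviation: GI50, concentration required for 50% inhibition of growth. TGI: total growth inhibition.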

Holding throughout (assay): growth of human tumour cells (NCI), 48 h
Assay [1] concerns A549 NSCLC.
Assay [2] has as its system COLO 205 colon.
The subject of assay [3] is HCT-116 colon.
In assay [4] the test system is IGROV1 ovarian.
Assay [5] relates to NCI-H23 lung.
The subject of assay [6] is NCI-H522 lung.
Assay [7] deals with OVCAR-8 ovarian.
The test system of assay [8] is SK-MEL-28 melanoma.
Assay [9] relates to SK-OV-3 ovarian.
For assay [10], the system named is SR leukemia.

Turning to `COc1ccc(CC(NC(=O)[C@H](C)NC(=O)CN2CCOCC2)C(=O)N[C@@H](Cc2ccccc2)C(=O)[C@@]2(C)CO2)cc1` (stereo partly drawn), the GI50 in [1] was 0.461 µM; in [2] it was 0.308 µM; in assay [3] it was 0.181 µM; in [4], 0.409 µM; in assay [5], 0.196 µM; in assay [6], 0.278 µM. In addition, the GI50 in assay [7] was 0.342 µM; in assay [8], 0.215 µM; in assay [9], 0.392 µM; in assay [10], 0.064 µM. Moreover, the TGI in [1] is greater than 22.9 µM; in assay [2] it was 0.933 µM; in [3], 0.49 µM; in [4], 7.3 µM; in assay [5], 0.695 µM; in assay [6], 0.908 µM. For the same compound, the results for the TGI in assay [8] and in assay [9] were 0.586 µM and 1.77 µM, respectively.

Regarding `C/C1=C/C(=O)O[C@@H]2C[C@@H](CC[C@H](C)/C=C\C=C\CC1)O[C@@](OCCc1ccccc1)([C@@H]1CSC(=O)N1)C2`, the GI50 was 0.0754 µM in assay [1]; 0.0845 µM in assay [2]; 0.225 µM in assay [3]; 0.0275 µM in assay [4]; 0.142 µM in assay [5]; 0.0581 µM in assay [6]. The GI50 in assay [7] is 1.11 µM; in assay [8], 0.218 µM; in [9], 0.116 µM; in [10], 0.379 µM. Besides, the TGI was greater than 17.5 µM in [1]; 0.401 µM in assay [2]; greater than 17.5 µM in [3]; 0.074 µM in assay [4]; greater than 17.5 µM in assay [5]; 2.47 µM in assay [6]. Moreover, the TGI in assay [7] is greater than 17.5 µM; in assay [8], 0.995 µM; in assay [9] it was greater than 5.4 µM; in assay [10], greater than 17.5 µM.

For the compound `CC(C)(C)[Si](C)(C)OCC1C=CC(n2cnc3c(N)ncnc32)O1` (stereo not drawn), the TGI in [1] was greater than 100 µM; in assay [2] it was greater than 100 µM; in assay [3], 50.6 µM; in assay [4], greater than 100 µM; in [5] it was greater than 100 µM; in assay [6], greater than 100 µM. The TGI in assay [7] is greater than 100 µM; in assay [8], greater than 100 µM; in [9], greater than 100 µM; in assay [10], 60.8 µM.

In the case of `O=C(Nc1cccc(O)c1)c1cccc(NC2=C(Cl)C(=O)N(Cc3ccccc3)C2=O)c1`, the GI50 is 18.8 µM in assay [1]; 27.4 µM in assay [2]; 18.1 µM in [3]; 1.19 µM in [4]; 20.6 µM in [5]; 3.08 µM in assay [6]. For the same compound, the GI50 in [7] was 13.1 µM; in [8], 16.9 µM; in [9], 18.6 µM; in [10], 0.315 µM. Further, the TGI in [1] stood at 48.3 µM; in assay [2], 67 µM; in assay [3], 32 µM; in assay [4] it was 6.11 µM; in assay [5] it was 35.8 µM; in assay [6] it was 17.4 µM. Further, the TGI in [7] was 43.5 µM; in [8] it was 36.3 µM; in assay [9], 34.6 µM; in assay [10], 3.36 µM.

As for `C(=C\c1nccc2c1[nH]c1ccccc12)/c1ccccc1`, the GI50 was 4.09 µM in assay [1]; 1.56 µM in assay [2]; 2.71 µM in assay [3]; 0.664 µM in assay [4]; 3.78 µM in assay [5]; 2.38 µM in [6]. Also, the GI50 is 4.69 µM in [7], 4.78 µM in assay [8], 2.97 µM in assay [9] and 1.11 µM in [10]. In addition, the TGI in [1] was greater than 100 µM; in assay [2], 3.62 µM; in assay [3], 10.7 µM; in [4], 23.6 µM; in [5], greater than 100 µM; in assay [6], 7.94 µM. Also, the TGI was greater than 100 µM in assay [7], 28.4 µM in [8], 13.4 µM in assay [9] and 6.84 µM in assay [10].

Take `CC(C)(C)OC(=O)CN1CCc2c(sc3ncnc(N/N=C/c4cccc5ccccc45)c23)C1`: the GI50 is 3.03 µM in [1]; 1.07 µM in assay [2]; 1.65 µM in assay [3]; 1.87 µM in assay [4]; 4.19 µM in [5]; 2.16 µM in [6]. Moreover, the GI50 in assay [7] was 2.58 µM; in assay [8] it was 4.41 µM; in assay [9], 4.48 µM; in assay [10] it was 1.46 µM. The TGI in assay [1] was greater than 33.3 µM; in assay [2] it was 3.93 µM; in assay [3] it was 6.73 µM; in [4], 7.4 µM; in [5], 17.4 µM; in assay [6], 12.4 µM. Further, the TGI in assay [7] is greater than 33.3 µM; in assay [8], 15.7 µM; in assay [9], 26.1 µM; in assay [10] it was 15.2 µM.

As for `O=c1c2ccccc2nc(-c2ccccc2)n1O`, the TGI in [1], in [2], in assay [3], in assay [4], in assay [5] and in assay [6] was greater than 100 µM each time. Besides, the TGI in assay [7], in assay [8], in [9] and in [10] was greater than 100 µM in each case.

Turning to `O=S(=O)(O)/C(=C\c1ccccc1)c1ccccc1` (tested in a mixture with another compound), the TGI in [1], in assay [2], in assay [3], in assay [4], in [5] and in [6] was greater than 100 µM throughout. Moreover, the TGI in assay [7], in assay [8], in assay [9] and in assay [10] was greater than 100 µM each time.

As for `O=[N+]([O-])c1ccc(/C=C(/c2ccc([N+](=O)[O-])o2)S(=O)(=O)c2ccccc2)o1`, the TGI in assay [1] came out at 38.2 µM; in assay [2] it was 4.67 µM; in assay [3] it was 3.08 µM; in [4] it was 30.6 µM; in assay [5], 38 µM; in assay [6] it was 4.21 µM. Further, the TGI in [7] turned out to be 18.3 µM; in [8], 33.6 µM; in assay [9], 90.8 µM; in [10], 2.6 µM.
